In US20180326022A1, “COMPOSITIONS AND METHODS FOR IMPROVING HEART FUNCTION AND TREATING HEART FAILURE” (The Trustees of the University of Pennsylvania, priority 2017, published 2018):

Key:
[1] = tested on: primary adult rat cardiomyocytes; test: Cell contractility (sarcomere shortening, 1 Hz pacing); assay type: cell-based; conditions: for contraction amplitudes and velocities: primary adult rat cardiomyocytes, vinblastine 20 μM 2 hr, nocodazole 1 μM 30 min, costunolide 10 μM 2 hr
Procedure: (§1) Viral constructs were permitted to express for 24-72 hours with Moi=100-200. Parthenolide (Fisher Scientific NC9013142) treatment was carried out at room temperature for 2 hours at 10 μM. All experiments were performed within 48 hours of isolation, except those involving shTTL, which were allowed 72 hours to improve knockdown efficiency.
Experiments were performed in custom-fabricated cell chambers (Ionoptix) mounted on an LSM Zeiss 780 inverted confocal microscope using a 40× oil 1.4 NA objective and transmitted light camera (IonOptix MyoCam-S). For contractility assays, cells were maintained in NT solution and electrical field stimulation was provided at 1 Hz with a myopacer (IonOptix MYP100) through platinum electrodes lowered into the bath. Sarcomere length was measured optically by Fourier transform analysis (IonWizard, IonOptix). After 15 s of 1 Hz pacing to achieve steady state, five traces were recorded and analyzed.

[2] = tested on: detyrosinated tubulin; test: Western blotting of cardiomyocyte lysates (TTL, α-, detyr-, tyr-tubulin); assay type: cell-based; conditions: rat cardiomyocytes; PTL treatment; shTTL; short term EpoY
Procedure: as §1
For analysis of proteins expression levels quantitative Western blots were performed using infrared fluorescence imaging on an Odyssey Imager (LI-COR). Cell homogenates were prepared in ice-cold IGEPAL lysis buffer. After 1 freezing cycle lysates were spun at 18,000×g for 5 min. Aliquots of supernatants were mixed with 4× sample buffer (LI-COR, 928-40004) containing 10% BME, boiled for 6 min., and resolved on sodium dodecyl sulfate (SDS)-polyacrylamide gel electrophoresis Tris-glycine gels (Bio-Rad). Proteins were transferred to a membrane on Mini Trans-Blot Cell (Bio-Rad), blocked 1 h in Odyssey Blocking Buffer (TBS) (LI-COR, 927-50000), and probed with the corresponding primary antibody (see list below) for 2 h at room temperature. Membranes were then rinsed with TBST 4 times for 5 min, and incubated with secondary antibodies (below) for 1.5 h at room temperature. Membranes were rinsed again with TBST and then imaged on Odyssey Imager. Image analysis was performed using Image Studio Lite software (LI-COR). Fluorescent band intensity was always normalized to GAPDH loading control. Analysis of human tissue samples for levels of detyrosinated tubulin was performed blinded to the experimental groups.

[3] = tested on: rat cardiomyocytes; test: Calcium measurements (Fluo-3 transients); assay type: cell-based; conditions: rat ventricular myocytes; 2 hrs of 10 μM EpoY
Procedure: Myocytes were loaded with Fluo-3 by 20 min incubation with 1 μM Fluo-3-acetoxymethyl ester (Invitrogen) and 0.01% Pluronic F127 (a poloxamer made by BASF, Florham Park N.J., USA), and allowed an additional 10 min for de-esterification. Cells were scanned using a 488 nm argon ion laser in confocal line-scan mode at 1.92 ms/line. Cells were electrically paced at 1 Hz for 20 s to achieve steady state; the final 5 traces of the pacing protocol were pooled and analyzed for calcium transient properties. The measured fluorescence (F) throughout the transient was normalized to the resting fluorescence prior to stimulation (F0) to normalize for heterogeneity in dye loading.

[4] = tested on: cardiac and skeletal muscle; conditions: 10 μM; refs (13), (8); cited from earlier work
[5] = tested on: human myocytes; test: Calcium measurements in human myocytes; assay type: cell-based
Procedure: (§2) Viable myocytes were concentrated by gravity (5-7 min) and supernatant was aspirated to remove dead cells. Myocytes were resuspended in NT solution containing 1 mM Ca^2+ and concentrated by gravity (5-7 min) again. Cardiomyocytes used acutely were maintained in NT solution for up to 6 hours. Myocytes were treated with 10 μM parthenolide (Fisher Scientific NC9013142 or Sigma P0667) or 10 μM colchicine (Sigma) at room temperature in NT solution for 2 hours. Experiments were performed within 6 hours of isolation, except for those involving viral transduction in cultured cells.
Calcium measurements were carried out as described in Example 1 with the following modifications. Myocytes were loaded with 1 μM Fluo-3-acetoxymethyl ester (Invitrogen) and 15% Pluronic F127 (a poloxamer made by BASF, Florham Park, N.J., USA) for 15 minutes. Cells were scanned using a 488-nm argon ion laser in confocal line-scan mode at 0.909 ms/line. Cells were electrically paced at 0.5 Hz at room temperature for 30 s to achieve steady state; five steady-state transients of each myocyte were averaged, pooled in groups and analyzed for calcium transient properties. The measured fluorescence (F) throughout the transient was normalized to the resting fluorescence prior to stimulation (F0) to normalize for heterogeneity in dye loading.

[6] = tested on: human myocytes; test: Cell contractility of human myocytes (0.5 Hz); assay type: cell-based
Procedure: as §2
MatTek glass bottom dish was coated 5 μl of 0.5 mg/ml laminin and air dried for 10 min. Culture medium was F-10 (1×) Nutrient Mixture (Ham) [+] L-Glutamine (Life Technologies, 11550-043) supplemented with insulin-transferrin selenium-X (Gibco, 51500-056), 20 mM HEPES, 1 μg/μl primocin (Invivogen, ant-pm-1), 0.4 mM extra CaCl2, 5% FBS, 25 μM cytochalasin D (Cayman, 11330). Viable myocytes were concentrated and a proper amount of medium was added in culture so that neighboring cells were not in direct contact. Viral constructs were permitted to express for 48 hours with Moi=100-200. Adenoviral TTL-IRES-dsRed and EMTB-3x GFP were transduced in human myocytes as previously performed in rat myocytes. Myocytes were replenished with fresh warm medium without cytochalasin D before calcium and contractility measurements.
Experiments were performed as described in Example 1 with some modification. Contractility is measured in custom-fabricated cell chambers (Ionoptix) mounted on an LSM Zeiss 880 inverted confocal microscope using a 40× oil 1.4 NA objective and transmitted light camera (IonOptix MyoCam-S). Myoyctes were maintained in NT solution (for freshly isolated myocytes) or culture medium (without cytochalasin D, for cultured myocytes) at room temperature and electrical field stimulation was provided at 0.5 Hz with a myopacer (IonOptix MYP100) through platinum electrodes lowered into the bath. Sarcomere length was measured optically by Fourier transform analysis (IonWizard, IonOptix). After 10-30 s of 0.5 Hz pacing to achieve steady state, five traces were recorded and analyzed. If not specified, contractility data was obtained at room temperature.
To test whether the contractile improvement over MT destabilization remains under more physiological conditions, both 0.5 Hz and 1 Hz contractions at 37 C were recorded and analyzed in a small subset of isolated human myocytes (1 NF and 1 failing heart, FIG. 29C).

[7] = tested on: human myocytes; test: Nanoindentation stiffness measurements; assay type: cell-based; conditions: failing human myocytes; 10 μM, 2 hours
Procedure: as §2
MatTek glass bottom dish was coated 5 μl of 0.5 mg/ml laminin and air dried for 10 min. Culture medium was F-10 (1×) Nutrient Mixture (Ham) [+] L-Glutamine (Life Technologies, 11550-043) supplemented with insulin-transferrin selenium-X (Gibco, 51500-056), 20 mM HEPES, 1 μg/μl primocin (Invivogen, ant-pm-1), 0.4 mM extra CaCl2, 5% FBS, 25 μM cytochalasin D (Cayman, 11330). Viable myocytes were concentrated and a proper amount of medium was added in culture so that neighboring cells were not in direct contact. […]
Mechanical properties at the microscopic scale were measured using nanoindentation (Piuma, Optics11, The Netherlands). […] The Young's moduli were calculated automatically by the software, by fitting the force vs. indentation curve to the Hertz equation. […]

## CCOC(=O)C1O[C@@H]1C(=O)N[C@@H](Cc1ccc(O)cc1)C(=O)O (some centres unmarked) [EpoY]
[1]; rat ventricular myocytes, 2 hrs of 10 μM EpoY
  contractility (amplitude of contraction, velocity of contraction and relaxation): enhanced
[2]
  alpha / total tubulin levels (western blot): without changing
  detyrosinated tubulin (western blot): specifically reduces detyrosination
[3]
  electrically evoked [Ca2+]i transients: not changed

## COc1cc2c(c(OC)c1OC)-c1ccc(OC)c(=O)cc1[C@@H](NC(C)=O)CC2 [colchicine, (S)—N-(5,6,7,9-tetrahydro-1,2,3,10-tetramethoxy-9 oxobenzol[a]heptalen-7-yl) acetamide]
[4]
  effect on microtubules: broadly depolymerizes MTs
[5]; any group (NF and failing human myocytes)
  Ca2+ cycling: no significant effect
[5]; failing human myocytes
  impaired [Ca2+]i cycling: neither colch nor PTL treatment improved
[6]; NF human myocytes, 10 μM, 2 hours
  shortening amplitude and contractile velocities: modest (yet significant) increases
[6]; failing human myocytes
  restoration of lost function (contractile velocities vs NF benchmark): ~50%
[6]; failing human myocytes, 10 μM, 2 hours
  shortening amplitude and velocity, speed of relaxation: robustly improved
[7]
  viscoelasticity (Emax and EΔ): robustly reduced viscoelasticity

## C=C1C(=O)O[C@@H]2/C=C(\C)CC/C=C(\C)CC[C@@H]12 [costunolide, (3aS,6E,10E,11aR)-6,10-dimethyl-3-methylidene-3a,4,5,8,9,11a-hexahydrocyclodeca[b]furan-2-one]
[1]
  contraction amplitudes and velocities: effective to increase

## COC(=O)Nc1nc2ccc(C(=O)c3cccs3)cc2[nH]1 [nocodazole]
[1]
  contraction amplitudes and velocities: effective to increase

## CC[C@]1(O)C[C@@H]2CN(CCc3c([nH]c4ccccc34)[C@@](C(=O)OC)(c3cc4c(cc3OC)N(C)[C@H]3[C@@](O)(C(=O)OC)[C@H](OC(C)=O)[C@]5(CC)C=CCN6CC[C@]43[C@@H]65)C2)C1 [vinblastine]
[1]
  contraction amplitudes and velocities: effective to increase
